Consider 25 molecules from patent US20220324868A1, “Pyrazolone-Fused Pyrimidine Compound, and Preparation Method and Use Therefor” (SHANGHAI PHARMACEUTICALS HOLDING CO., LTD., priority 2019, published 2022).

Structures can show the parent of a compound that is named as a salt. Where two headings read alike, the source gives them in different places.

The target in one test is T1, WEE1 kinase (Homo sapiens, UniProt P30291).
T1 construct: purchased CarnaBiosciences, Inc. 05-177
As to the kind of experiment: Inhibitory effect on WEE1 kinase in vitro (ELISA). It counts as biochemical. The following applies: ATP concentration of Km (12 μM), WEE1 0.15 ng/μL, 60 min. As to the method:
I. Inhibitory Effect of Compound on WEE1 Kinase In Vitro
The tested compounds were screened on WEE1 kinase with ATP concentration of Km by ELISA. Three compounds were screened on WEE1 kinase to evaluate the kinase inhibitory activity of the tested compounds. In the detection process, the initial concentration of the tested compounds was all selected as 100 nM, and each compound was selected with 6 gradient dilution concentrations, the gradient dilution ratio was 4-fold, and two replicate wells were detected for each concentration, MK1775 was used as the standard control.
1. Coating substrate: 1) An appropriate volume of substrate storage solution protein tyrosinase (PTK) substrate (poly-Glu-Tyr) was taken, diluted 10 times with PBS, and the concentration was diluted from […]. The mixture was added to a high adsorption 96-well plate at 125 μL per well. The plate was placed in an incubator at 37° C. for overnight coating. 2) After 24 hours, the 96-well plate was taken out, the liquid in the 96-well plate was poured out, cleaned with washing buffer for 3 times, and the incubator at 37 was inverted and dried for 2 hours.
3. Enzyme reaction stage: 1) WEE1 kinase and ATP were prepared into 2× enzyme solution and 4× ATP solution respectively with 1× reaction buffer.
4. Reaction termination stage: 1) the reaction mixture in the plate was poured out, 200 μL of washing buffer was added to each well, and washed for 5 times; the primary antibody P-Tyr (PY99) (dilution ratio 1:2000) was added, 100 μL per well, at room temperature for 30 min. 2) The primary antibody in the plate was poured out, 200 μL of washing buffer was added to each well, and washed for 5 times; the second antibody Anti-mouse IgG HRP-linked Antibody (dilution ratio 1:2000) was added, 100 μL per well, at room temperature for 30 min. 3) The secondary antibody in the plate was poured out, washed 5 times with washing buffer, and TMB was added, 100 μL per well, and colored for 10-30 min, depending on the color depth. The reaction was terminated with 1N sulfuric acid before reading.
5. […] 2) Graphpad Prism 5.0 was used to fit Log(inhibitor) vs. response-Variable slope (four parameters) curves to the data, and the corresponding IC50 (half maximal inhibitory concentration) was calculated.

In the next test the test system is COLO 205 cells. The experiment in a line: Proliferation inhibition of COLO 205 cells (Luminescence ATP Detection, ATPlite). It counts as cell-based. To be noted: Homo sapiens; p53-deficient cell line COLO 205, 72 hours. As to the method: (§1) I. Proliferation Inhibitory of the Compound on COLO 205 Cells and Hela Cells.
(§2) COLO205 cells, purchased from SIBS, generation P11; Hela purchased from ATCC, generation P13.
Drug treatment of cells: on the third day of the experiment, microplates were removed from the incubator, 9× compound were added to each well in the microplate, and 5 μL was added to each well, wherein there were 2 replicate wells for each drug concentration and 10 drug concentrations for each compound. According to different cell lines, the initial concentration of each compound was different, after the completion, the microplate was cultured at 37° C. and 5% CO2 for 72 hours.
Data collection: The microplates were removed from the incubator and equilibrated at room temperature for 30 minutes. 100 μL of ATPlite reaction mixture after room temperature equilibrium was added to each well, the solution was shaken at room temperature of 1300 rpm for 2 minutes, and then the microplate was placed in a HERAEUS Multifuge X1R centrifuge at 2000 rpm for 1 minute; after equilibrium at room temperature for 10 minutes, the fluorescence signal value was measured on EnVision™.
(§3) Calculation of cell viability: Cell viability(%)=signal value of administration/signal value of controlx 100%. Graphpad Prism 5.0 was used to fit Log(inhibitor) vs. response-Variable slope (four parameters) curves to the fluorescence signal values at each concentration, and the corresponding IC50 (half maximal inhibitory concentration) was calculated.

The next test has as its system Hela cells. The experiment in a line: Proliferation inhibition of Hela cells (Luminescence ATP Detection, ATPlite). The class given is cell-based. The following applies: Homo sapiens, 72 hours. As to the method: as §1, §2
Cell culture and inoculation: on the first day of the experiment, cells in normal culture were taken in their exponential growth state, digested and dispersed, the cell density was adjusted to 9×10^3 cells/mL, and 40 μL per well were inoculated into 384-well cell culture plates; after inoculation was completed, the microplates were placed at 37° C. and 5% CO2 for incubation.
Drug treatment of cells: on the second day of the experiment, microplates were removed from the incubator, 9× compound were added to each well in the microplate, and 5 μL was added to each well, wherein there were 2 replicate wells for each drug concentration and 10 drug concentrations for each compound. According to different cell lines, the initial concentration of each compound was different, after the completion, the microplate was cultured at 37° C. and 5% CO2 for 72 hours.
Data collection: the microplates were removed from the incubator and equilibrated at room temperature for 30 minutes. 40 μL of ATPlite reaction mixture after room temperature equilibrium was added to each well, the solution was shaken at room temperature of 1300 rpm for 2 minutes, and then the microplate was placed in a HERAEUS Multifuge X1R centrifuge at 2000 rpm for 1 minute; after equilibrium at room temperature for 10 minutes, the fluorescence signal value was measured on EnVision™.
as §3
(In ATP-based viability assays light output follows the ATP content of the culture.)

As a reminder, the IC50 is the concentration that gives 50% inhibition.

T1 sequence (P30291 whole entry): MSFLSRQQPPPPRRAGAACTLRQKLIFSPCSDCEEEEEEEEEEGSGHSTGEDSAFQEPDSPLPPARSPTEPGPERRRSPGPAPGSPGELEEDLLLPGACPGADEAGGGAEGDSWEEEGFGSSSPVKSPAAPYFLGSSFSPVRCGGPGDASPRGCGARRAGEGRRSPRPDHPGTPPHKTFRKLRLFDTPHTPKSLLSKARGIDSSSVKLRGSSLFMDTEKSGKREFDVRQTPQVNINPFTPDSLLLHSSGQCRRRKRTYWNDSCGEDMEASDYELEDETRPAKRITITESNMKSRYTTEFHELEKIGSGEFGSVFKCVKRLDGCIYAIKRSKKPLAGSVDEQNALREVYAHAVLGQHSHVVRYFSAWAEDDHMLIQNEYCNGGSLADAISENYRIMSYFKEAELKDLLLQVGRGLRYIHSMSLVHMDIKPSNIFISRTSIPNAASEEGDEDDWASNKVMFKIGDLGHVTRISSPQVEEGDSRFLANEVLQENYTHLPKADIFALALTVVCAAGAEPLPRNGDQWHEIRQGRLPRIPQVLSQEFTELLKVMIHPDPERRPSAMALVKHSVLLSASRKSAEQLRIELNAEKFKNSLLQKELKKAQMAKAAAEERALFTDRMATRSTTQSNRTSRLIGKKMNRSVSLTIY

`C=CCn1c(=O)c2cnc(Nc3ccc([C@H]4CC[C@@H](N(C)C)CC4)cc3)nc2n1-c1ccc2c(n1)C(O)CC2` (single isomer, unassigned) [Compound I-30-1]: the IC50 on WEE1 kinase (read-out: WEE1 IC50) worked out at 5.86 nM.

Consider `C=CCn1c(=O)c2cnc(Nc3ccc([C@H]4CC[C@@H](N(C)C)CC4)cc3)nc2n1-c1ccc2c(n1)C(O)CC2` (single isomer, unassigned) [Compound I-30-2], for which the IC50 at WEE1 kinase (read-out: WEE1 IC50) amounted to 6.6 nM. Still for that read-out and setting: with `C=CCn1c(=O)c2cnc(Nc3ccc([C@H]4CC[C@@H](N(C)C)CC4)cc3)nc2n1-c1ccc2c(n1)C(C)(O)CCC2` (single isomer, unassigned) [Compound I-36-1] the figure was 4.75 nM. As for `C=CCn1c(=O)c2cnc(Nc3ccc([C@H]4CC[C@@H](N(C)C)CC4)cc3)nc2n1-c1ccc2c(n1)C(C)(O)CCC2` (single isomer, unassigned) [Compound I-36-2], at WEE1 kinase (read-out: WEE1 IC50), the IC50 was found to be 2.65 nM.

In the case of `C=CCn1c(=O)c2cnc(Nc3ccc(N4CCN(C)CC4)cc3)nc2n1-c1ccc2c(n1)C(O)CC2` (stereo not drawn) [Compound I-1, 2-allyl-1-(7-hydroxy-6,7-dihydro-5H-cyclopenta[b]pyridin-2-yl)-6-((4-(4-methylpiperazin-1-yl)phenyl)amino)-1,2-dihydro-3H-pyrazolo[3,4-d]pyrimidin-3-one], the IC50 with COLO 205 cells is 1880 nM; in the test on Hela cells, 495 nM; on WEE1 kinase (WEE1 IC50, nM) it was 2.85 nM. As to `C=CCn1c(=O)c2cnc(Nc3ccc(N4CCN(CC)CC4)cc3)nc2n1-c1ccc2c(n1)C(O)CC2` (stereo not drawn) [Compound I-2], the IC50 in the test with COLO 205 cells is 1740 nM; with Hela cells it was 345 nM; at WEE1 kinase (read-out: WEE1 IC50), 2.55 nM. On the same counts, the results for `C=CCn1c(=O)c2cnc(Nc3ccc(C4CCN(C)CC4)cc3)nc2n1-c1ccc2c(n1)C(O)CC2` (stereo not drawn) [Compound I-3] are 5150 nM, 434 nM and 2.68 nM.

In the case of `C=CCn1c(=O)c2cnc(Nc3ccc(N4CCN(CC5CC5)CC4)cc3)nc2n1-c1ccc2c(n1)C(O)CC2` (stereo not drawn) [Compound I-4], the IC50 stood at 1970 nM with COLO 205 cells, 395 nM in the test with Hela cells and 4.43 nM at WEE1 kinase (read-out: WEE1 IC50). The like results for `C=CCn1c(=O)c2cnc(Nc3ccc(N4CCC(CN(C)C)CC4)cc3)nc2n1-c1ccc2c(n1)C(O)CC2` (stereo not drawn) [Compound I-5, 2-allyl-6-((4-(4-((dimethylamino)methyl)piperidin-1-yl)phenyl)amino)-1-(7-hydroxy-6,7-dihydro-5H-cyclopenta[b]pyridin-2-yl)-1,2-dihydro-3H-pyrazolo[3,4-d]pyrimidin-3-one] were, in that order, 2550 nM, 392 nM and 3.62 nM.

For the molecule `C=CCn1c(=O)c2cnc(Nc3ccc(CN4CCN(C)CC4)cc3)nc2n1-c1ccc2c(n1)C(O)CC2` (stereo not drawn) [Compound I-7], the figures for the 50% inhibitory concentration (IC50) in the test on Hela cells and at WEE1 kinase (read-out: WEE1 IC50) were 2900 nM and 9.69 nM, respectively.

On to `C=CCn1c(=O)c2cnc(Nc3ccc(N4CCC5(CC4)CN(C)C5)cc3)nc2n1-c1ccc2c(n1)C(O)CC2` (stereo not drawn) [Compound I-8], for which, on WEE1 kinase (read-out: WEE1 IC50), the IC50 was 11.3 nM. On the same count and under the same terms, to `C=CCn1c(=O)c2cnc(Nc3ccc(N4CC5CC4CN5)cc3)nc2n1-c1ccc2c(n1)C(C)(O)CC2` (stereo not drawn) [Compound I-12, 6-((4-(2,5-diazabicyclo[2.2.1]heptan-2-yl)phenyl)amino)-2-allyl-1-(7-hydroxy-7-methyl-6,7-dihydro-5H-cyclopenta[b]pyridin-2-yl)-1,2-dihydro-3H-pyrazolo[3,4-d]pyrimidin-3-one] belongs 3.68 nM; to `C=CCn1c(=O)c2cnc(Nc3ccc(N4CCOCC4)cc3)nc2n1-c1ccc2c(n1)C(C)(O)CC2` (stereo not drawn) [Compound I-15], 3.85 nM. In the case of `C=CCn1c(=O)c2cnc(Nc3ccc(CCC(=O)N4CCCC4)cc3)nc2n1-c1ccc2c(n1)C(C)(O)CCC2` (stereo not drawn) [Compound I-17, 2-allyl-1-(8-hydroxy-8-methyl-5,6,7,8-tetrahydroquinolin-2-yl)-6-((4-(3-oxo-3-(pyrrolidin-1-yl)propyl)phenyl)amino)-1,2-dihydro-3H-pyrazolo[3,4-d]pyrimidin-3-one], on WEE1 kinase (read-out: WEE1 IC50), the IC50 was found to be 12.8 nM. In the case of `C=CCn1c(=O)c2cnc(Nc3ccc(N4CCNCC4)cc3)nc2n1-c1ccc2c(n1)C(C)(O)CCC2` (stereo not drawn) [Compound I-18, 2-allyl-1-(8-hydroxy-8-methyl-5,6,7,8-tetrahydroquinolin-2-yl)-6-((4-(piperazin-1-yl)phenyl)amino)-1,2-dihydro-3H-pyrazolo[3,4-d]pyrimidin-3-one], the IC50 at WEE1 kinase (read-out: WEE1 IC50) was found to be 2.03 nM. Consider `C=CCn1c(=O)c2cnc(Nc3ccc(N4CCC5(CC4)CN(C)C5)cc3)nc2n1-c1ccc2c(n1)C(O)CCC2` (stereo not drawn) [Compound I-20, 2-allyl-1-(8-hydroxy-5,6,7,8-tetrahydroquinolin-2-yl)-6-((4-(2-methyl-2,7-diazaspiro[3.5]nonan-7-yl)phenyl)amino)-1,2-dihydro-3H-pyrazolo[3,4-d]pyrimidin-3-one], for which the IC50 at WEE1 kinase (read-out: WEE1 IC50) was found to be 4.41 nM. Still for that read-out and setting: with `C=CCn1c(=O)c2cnc(Nc3ccc(N4CCC5(CC4)CNC5)cc3)nc2n1-c1ccc2c(n1)C(O)CCC2` (stereo not drawn) [Compound I-21, 6-((4-(2,7-diazaspiro[3.5]nonan-7-yl)phenyl)amino)-2-allyl-1-(8-hydroxy-5,6,7,8-tetrahydroquinolin-2-yl)-1,2-dihydro-3H-pyrazolo[3,4-d]pyrimidin-3-one] the figure was 5.75 nM; with `C=CCn1c(=O)c2cnc(Nc3ccc(N4CCC5(CCNC5)CC4)cc3)nc2n1-c1ccc2c(n1)C(O)CCC2` (stereo not drawn) [Compound I-22], 3.55 nM; with `C=CCn1c(=O)c2cnc(Nc3ccc(N4CCNCC4)cc3)nc2n1-c1ccc2c(n1)C(O)CCC2` (stereo not drawn) [Compound I-24], 3.81 nM. The same measure, in the same setting: to `C=CCn1c(=O)c2cnc(Nc3ccc(N4CC5CC4CN5)cc3)nc2n1-c1ccc2c(n1)C(O)CCC2` (stereo not drawn) [Compound I-25] belongs 4.05 nM.

As for `C=CCn1c(=O)c2cnc(Nc3ccc(N4CCC(N(C)C)CC4)cc3)nc2n1-c1ccc2c(n1)C(O)CCC2` (stereo not drawn) [Compound I-28, 2-allyl-6-((4-(4-(dimethylamino)piperidin-1-yl)phenyl)amino)-1-(8-hydroxy-5,6,7,8-tetrahydroquinolin-2-yl)-1,2-dihydro-3H-pyrazolo[3,4-d]pyrimidin-3-one formate], the IC50 on WEE1 kinase (read-out: WEE1 IC50) is 3.58 nM.

With `C=CCn1c(=O)c2cnc(Nc3ccc(N4C[C@H]5CN(C)C[C@H]5C4)cc3)nc2n1-c1ccc2c(n1)C(O)CC2` (stereo partly drawn) [Compound I-31], on WEE1 kinase (read-out: WEE1 IC50), the IC50 stood at 3.12 nM. `C=CCn1c(=O)c2cnc(Nc3ccc(N4C[C@H]5CN(CC)C[C@H]5C4)cc3)nc2n1-c1ccc2c(n1)C(O)CC2` (stereo partly drawn) [Compound I-37]: the IC50 on WEE1 kinase (read-out: WEE1 IC50) came to 11.8 nM. In the test with Hela cells, `C=CCn1c(=O)c2cnc(Nc3ccc(N4CC5(CC(N(C)C)C5)C4)cc3)nc2n1-c1ccc2c(n1)C(O)CC2` (stereo not drawn) [Compound I-42] yielded an IC50 of 322 nM.

As to `C=CCn1c(=O)c2cnc(Nc3ccc(CCCN(C)C)cc3)nc2n1-c1ccc2c(n1)C(O)CC2` (stereo not drawn) [Compound I-43], the IC50 at WEE1 kinase (read-out: WEE1 IC50) amounted to 4.91 nM.
